From article PMC11089204 (Frontiers in Pharmacology, 2024)
Where two headings read alike, the source gives them in different places.

Legend:
[1] = Metabolites in human plasma after oral psilocybin (reanalysed study samples); conditions: for Tmax: human, plasma, po, 30 mg
[2] = molecular target: T1, recombinant CYP3A4 (Homo sapiens, UniProt P08684); experiment: Incubation with recombinant CYP3A4 enzymes; assay type: in vitro ADME; conditions: for formation of metabolite from psilocin: rec. CYP3A4
T1 construct: purchased Corning Life Sciences B.V
T1 sequence (P08684 2-503 limits assumed): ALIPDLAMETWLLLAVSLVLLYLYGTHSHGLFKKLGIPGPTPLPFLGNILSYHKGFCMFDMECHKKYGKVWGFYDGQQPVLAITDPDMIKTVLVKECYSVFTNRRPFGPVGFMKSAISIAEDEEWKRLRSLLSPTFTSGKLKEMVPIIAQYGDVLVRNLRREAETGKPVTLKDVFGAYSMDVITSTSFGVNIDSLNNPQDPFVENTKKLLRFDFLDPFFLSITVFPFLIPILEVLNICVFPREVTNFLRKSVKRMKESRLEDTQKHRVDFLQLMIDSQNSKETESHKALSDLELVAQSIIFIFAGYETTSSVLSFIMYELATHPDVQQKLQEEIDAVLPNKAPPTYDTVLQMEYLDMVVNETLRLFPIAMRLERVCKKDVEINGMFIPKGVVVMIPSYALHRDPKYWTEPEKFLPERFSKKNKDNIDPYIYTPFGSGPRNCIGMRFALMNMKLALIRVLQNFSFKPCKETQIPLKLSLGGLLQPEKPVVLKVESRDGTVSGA
Experimental: (§1) Corning UltraPool human liver microsomes (HLM) 150 (20 mg/mL), human intestinal microsomes (HIM) pool (10 mg/mL) as well as recombinant human CYP enzymes (with P450 oxidoreductase, OR) including CYP1A2+OR (0.5 nmol), CYP2B6+OR (0.5 nmol), CYP2C8+OR (1.0 nmol), CYP2C9*1+OR (1 nmol), CYP2C19+OR (0.5 nmol), CYP2D6*1+OR (0.5 nmol), CYP2E1+OR + cytochrome b5 (1 nmol), CYP3A4+OR + cytochrome b5 (0.5 nmol), MAO-A (5 mg/mL), MAO-B (5 mg/mL), and UGT1A10 (5 mg/mL) were purchased from Corning Life Sciences B.V (Amsterdam, Netherlands). All microsomes and recombinant enzyme solutions were aliquoted and stored at −80 °C until further use.
(§2) The total volume of the reaction mixture was 500 μL. […] Samples were either directly analyzed by liquid chromatography tandem mass spectrometry (LC-MS/MS) or briefly stored at −20°C until analysis.

[3] = molecular target: T2, recombinant MAO-B (Homo sapiens, UniProt P27338); experiment: Incubation with recombinant MAO-B enzymes; assay type: in vitro ADME; conditions: 1,000 nM psilocin, rec. MAO-B
T2 construct: purchased Corning Life Sciences B.V
T2 sequence (P27338 1-520): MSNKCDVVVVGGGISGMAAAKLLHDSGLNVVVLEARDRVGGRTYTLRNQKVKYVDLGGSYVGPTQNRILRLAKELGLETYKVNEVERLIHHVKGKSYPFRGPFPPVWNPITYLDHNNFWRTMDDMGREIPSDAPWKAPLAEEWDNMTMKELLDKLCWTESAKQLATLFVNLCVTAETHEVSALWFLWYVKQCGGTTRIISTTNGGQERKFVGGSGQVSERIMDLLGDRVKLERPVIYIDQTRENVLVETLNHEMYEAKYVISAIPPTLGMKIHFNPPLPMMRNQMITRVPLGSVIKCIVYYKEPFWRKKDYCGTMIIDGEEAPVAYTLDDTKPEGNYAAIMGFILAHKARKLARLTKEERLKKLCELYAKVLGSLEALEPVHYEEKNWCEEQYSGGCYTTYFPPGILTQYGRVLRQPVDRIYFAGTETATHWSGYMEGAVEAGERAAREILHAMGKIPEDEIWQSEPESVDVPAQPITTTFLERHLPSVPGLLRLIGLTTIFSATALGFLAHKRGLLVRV
Experimental: as §1
The MAO inhibition assay was based on the assay described in section 2.5.1 and performed identically if not otherwise stated.

[4] = system: human liver microsomes (HLM); experiment: Psilocin incubation with human liver microsomes (CYP inhibition assay); assay type: in vitro ADME; conditions: for metabolite concentration formed from psilocin / psilocin concentration (mean ± SD): 1,000 nM psilocin with HLM; for metabolite concentration formed from psilocin: 240 min incubation; for psilocin concentration: absence of HLM
Experimental: as §1, §2

[5] = molecular target: T3, human 5-HT1A receptor (Homo sapiens, UniProt P08908); experiment: 5-HT activation potency (IP1 accumulation), 5-HT1A; assay type: cell-based; set-up: expressed in transfected cells
T3 sequence (P08908 1-422): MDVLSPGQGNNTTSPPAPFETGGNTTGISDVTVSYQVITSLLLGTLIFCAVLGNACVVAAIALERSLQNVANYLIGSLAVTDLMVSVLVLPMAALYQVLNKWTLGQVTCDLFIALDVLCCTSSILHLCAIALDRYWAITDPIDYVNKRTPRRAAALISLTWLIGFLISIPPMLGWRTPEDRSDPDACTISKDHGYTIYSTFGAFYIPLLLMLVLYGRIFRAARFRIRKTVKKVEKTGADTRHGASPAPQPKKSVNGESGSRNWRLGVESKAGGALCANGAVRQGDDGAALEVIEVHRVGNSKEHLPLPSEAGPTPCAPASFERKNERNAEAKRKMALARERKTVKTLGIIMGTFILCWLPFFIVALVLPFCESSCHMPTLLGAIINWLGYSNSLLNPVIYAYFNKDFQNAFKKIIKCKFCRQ
Experimental: . […] NIH/3T3 cells stably expressing the human 5-HT1A, 5-HT2A, and 5-HT2B receptors were seeded at a density of 3,000 cells (5-HT1A and 5-HT2A) or 4,000 cells (5-HT2B) in 384-well plates using Opti-MEM medium from Gibco (ThermoFisher, Life Technologies, Zug, Switzerland). Subsequently, the test compounds were introduced, and the plates were incubated for 90 min at 37°C, followed by a 60 min incubation with Anti-IP1-Cryptate and IP1-d2 at room temperature. The formation of stimulated IP1 was quantified by homogeneous time-resolved fluorescence (HTRF) measurements using a BioTek Synergy H1 microplate reader (Agilent Technologies, Basel, Switzerland). The obtained raw data for receptor activation were subjected to normalization, wherein the baseline signal was set at 0%, and the maximum signal stimulated by 5-HT at the specific receptor was established as 100%.

[6] = molecular target: T4, recombinant CYP2D6 (Homo sapiens, UniProt P10635); experiment: Incubation with recombinant CYP2D6 enzymes; assay type: in vitro ADME
T4 construct: purchased Corning Life Sciences B.V
T4 sequence (P10635 whole entry): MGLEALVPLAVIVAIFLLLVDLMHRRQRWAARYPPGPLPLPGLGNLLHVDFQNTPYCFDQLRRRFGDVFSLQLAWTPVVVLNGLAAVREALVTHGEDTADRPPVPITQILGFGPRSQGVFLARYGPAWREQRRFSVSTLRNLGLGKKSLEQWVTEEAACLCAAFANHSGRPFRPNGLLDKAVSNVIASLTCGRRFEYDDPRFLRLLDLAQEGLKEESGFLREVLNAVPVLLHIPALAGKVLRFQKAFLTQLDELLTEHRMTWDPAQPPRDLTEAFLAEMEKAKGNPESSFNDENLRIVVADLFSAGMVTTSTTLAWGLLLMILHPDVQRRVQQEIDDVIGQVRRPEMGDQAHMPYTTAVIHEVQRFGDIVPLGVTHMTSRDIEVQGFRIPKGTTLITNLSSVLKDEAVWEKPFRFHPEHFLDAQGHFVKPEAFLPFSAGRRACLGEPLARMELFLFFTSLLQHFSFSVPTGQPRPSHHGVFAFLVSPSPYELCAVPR
Experimental: as §1, §2

[7] = NIH/3T3 cells, IP1 accumulation, read-out: h5-HT1A Activation potency EC50 ± SD

Compound: O=C(O)Cc1c[nH]c2cccc(O)c12 [4-HIAA, 4-hydroxyindole-3-acetic acid]
- Tmax [1]: ~2.5 h
- formation of metabolite from psilocin [2]: neither observed
- formation of metabolite from psilocin [3]: did not produce any
- metabolite concentration formed from psilocin [4]: 43.0 ± 7.9 nM
- EC50 [5, 7]: > 10 µM
- formation of metabolite from psilocin ([6]; rec. CYP2D6): neither observed

Compound: OCCc1c[nH]c2cccc(O)c12 [4-HTP, 4-hydroxytryptophol]
- detection in human plasma ([1]; 30 mg psilocybin p.o., n = 5): neither norpsilocin nor 4-HTP was detected
- formation of metabolite from psilocin [2]: neither observed
- formation of metabolite from psilocin [3]: did not produce any
- metabolite concentration formed from psilocin [4]: 43.4 ± 6.0 nM
- EC50 [5, 7]: > 10 µM
- formation of metabolite from psilocin ([6]; rec. CYP2D6): neither observed

Compound: CN(C)CCc1c[nH]c2cccc(O)c12 [psilocin, 4-hydroxy-N,N-dimethyltryptamine]
- Tmax [1]: ~2.5 h
- decrease of psilocin concentration / psilocin metabolized ([2]; 1,000 nM psilocin, rec. CYP3A4, 240 min): 40%
- psilocin concentration ([2]; rec. CYP3A4, t = 0 min): 916 ± 145 nM
- psilocin concentration ([2]; rec. CYP3A4, t = 240 min): 546 ± 41 nM
- psilocin metabolized ([2]; rec. CYP3A4 with ketoconazole, 240 min): 26%
- psilocin concentration ([2]; rec. CYP3A4 with ketoconazole, t = 0 min): 973 ± 133 nM
- psilocin concentration ([2]; rec. CYP3A4 with ketoconazole, t = 240 min): 720 ± 71 nM
- change of psilocin concentration [3]: did not visibly decrease
- psilocin concentration (mean ± SD) ([4]; after 240 min): 829 ± 32 nM
- psilocin concentration (mean ± SD) ([4]; start of incubation): 1,162 ± 146 nM
- effect of targeted inhibition of specific CYP enzymes in HLM on psilocin degradation ([4]; 1,000 nM psilocin, HLM with selective CYP inhibitors): did not lead to a clear inhibition
- psilocin concentration ([4]; t = 0 min): 1,141 ± 74 nM
- psilocin concentration ([4]; t = 240 min): 1,096 ± 105 nM
- EC50 [5]: 0.0017 ± 0.0024 µM
- psilocin concentration (mean ± SD) ([6]; 1,000 nM psilocin, rec. CYP2D6, t = 0 min): 937 ± 145 nM
- psilocin concentration (mean ± SD) ([6]; 1,000 nM psilocin, rec. CYP2D6, t = 240 min): 21.1 ± 14.2 nM
- psilocin metabolized ([6]; rec. CYP2D6): ~100%
- psilocin concentration (mean ± SD) ([6]; rec. CYP2D6 with quinidine, t = 0 min): 1,081 ± 241 nM
- psilocin concentration (mean ± SD) ([6]; rec. CYP2D6 with quinidine, t = 240 min): 747 ± 30 nM
